From patent publication US20240190854A1, “PYRIMIDINE OR PYRIDINE DERIVATIVES USEFUL AS HCN2 MODULATORS” (King's College London, priority 2021, published 2024)
Structures can show the parent of a compound that is named as a salt.

Columns and labels:
HCN2 = HCN2 (Homo sapiens (Human), UniProt Q9UL51); assay: HCN2 current assay using PatchXpress 7000A; type: cell-based; conditions: PatchXpress protocol; read-out: PX HCN2 IC50
Procedure: (§1) Example 126A, Using PatchXpress 7000A
(§2) Solutions for recording HCN currents were:
The membrane voltage was then stepped back to −30 mV for a further 8 seconds.
(§3) The peak inward current measured at the end of the pulse to −110 mV (HCN1 and HCN2) or −130 mV (HCN4) was measured and any leak current subtracted to calculate the HCN current. The HCN current amplitude was measured after each control or compound addition and normalized to the control amplitude (Control A).
(§4) All experiments were performed at room temperature (approximately 22° C.).
(§5) Each test compound concentration was applied to the cell for seven (7) minutes, at which point the next cumulative concentration was applied.

HCN4 = HCN4 (Homo sapiens (Human), UniProt Q9Y3Q4); assay: HCN4 current assay using PatchXpress 7000A; type: cell-based; conditions: PatchXpress protocol; read-out: PX HCN4 IC50
Sequence of HCN4 (Q9Y3Q4 whole entry, species assumed): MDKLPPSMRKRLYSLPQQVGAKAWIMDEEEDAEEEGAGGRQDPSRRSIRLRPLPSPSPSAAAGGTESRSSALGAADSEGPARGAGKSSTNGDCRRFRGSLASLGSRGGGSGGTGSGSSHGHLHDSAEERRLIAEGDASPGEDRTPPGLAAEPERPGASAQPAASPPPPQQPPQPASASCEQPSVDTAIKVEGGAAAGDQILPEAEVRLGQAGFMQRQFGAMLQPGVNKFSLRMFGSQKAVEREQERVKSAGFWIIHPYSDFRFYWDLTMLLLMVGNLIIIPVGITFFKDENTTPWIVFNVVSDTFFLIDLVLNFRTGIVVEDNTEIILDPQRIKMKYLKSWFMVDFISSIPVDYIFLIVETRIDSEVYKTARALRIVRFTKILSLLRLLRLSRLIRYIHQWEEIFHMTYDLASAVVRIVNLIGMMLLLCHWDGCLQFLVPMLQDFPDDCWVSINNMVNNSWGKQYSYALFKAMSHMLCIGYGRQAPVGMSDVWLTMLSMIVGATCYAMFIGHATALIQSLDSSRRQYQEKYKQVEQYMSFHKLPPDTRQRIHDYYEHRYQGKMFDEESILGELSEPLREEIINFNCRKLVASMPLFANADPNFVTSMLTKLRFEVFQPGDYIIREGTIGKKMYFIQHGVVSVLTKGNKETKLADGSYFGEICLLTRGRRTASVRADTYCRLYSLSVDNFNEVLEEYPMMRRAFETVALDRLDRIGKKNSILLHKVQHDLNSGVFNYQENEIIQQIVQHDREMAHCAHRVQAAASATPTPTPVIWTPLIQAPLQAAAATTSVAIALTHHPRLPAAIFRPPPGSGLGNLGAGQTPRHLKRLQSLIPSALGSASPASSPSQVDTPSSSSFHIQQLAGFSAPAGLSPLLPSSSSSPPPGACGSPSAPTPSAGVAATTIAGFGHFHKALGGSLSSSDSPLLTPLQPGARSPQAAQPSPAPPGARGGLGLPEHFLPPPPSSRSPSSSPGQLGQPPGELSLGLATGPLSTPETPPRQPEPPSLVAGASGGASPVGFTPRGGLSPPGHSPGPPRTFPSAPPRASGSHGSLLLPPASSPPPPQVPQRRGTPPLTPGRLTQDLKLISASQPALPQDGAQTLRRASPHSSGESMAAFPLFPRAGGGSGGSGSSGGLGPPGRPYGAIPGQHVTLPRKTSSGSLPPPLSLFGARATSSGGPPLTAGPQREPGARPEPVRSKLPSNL
Procedure: as §1, §2, §3, §4, §5

hERG channel = hERG channel (Homo sapiens (Human), UniProt Q12809); assay: hERG assay using IonWorks Quattro; type: cell-based; conditions: IonWorks protocol; read-out: IW hERG IC50
Procedure: Example 127A, Using IonWorks Quattro
Solutions for recording hERG currents were:
This was followed by a […] step of is to −30 mV to evoke the hERG tail current. This sequence was repeated 5 times at a frequency of 0.25 Hz (see FIG. 3). Currents were measured from the tail step at the 5th pulse and referenced to the holding current. Compounds were then incubated for 6-7 minutes prior to a second measurement of the hERG signal using an identical pulse train.

hNav1.5 = hNav1.5 (Homo sapiens (Human), UniProt Q14524)
Sequence of hNav1.5 (Q14524 whole entry): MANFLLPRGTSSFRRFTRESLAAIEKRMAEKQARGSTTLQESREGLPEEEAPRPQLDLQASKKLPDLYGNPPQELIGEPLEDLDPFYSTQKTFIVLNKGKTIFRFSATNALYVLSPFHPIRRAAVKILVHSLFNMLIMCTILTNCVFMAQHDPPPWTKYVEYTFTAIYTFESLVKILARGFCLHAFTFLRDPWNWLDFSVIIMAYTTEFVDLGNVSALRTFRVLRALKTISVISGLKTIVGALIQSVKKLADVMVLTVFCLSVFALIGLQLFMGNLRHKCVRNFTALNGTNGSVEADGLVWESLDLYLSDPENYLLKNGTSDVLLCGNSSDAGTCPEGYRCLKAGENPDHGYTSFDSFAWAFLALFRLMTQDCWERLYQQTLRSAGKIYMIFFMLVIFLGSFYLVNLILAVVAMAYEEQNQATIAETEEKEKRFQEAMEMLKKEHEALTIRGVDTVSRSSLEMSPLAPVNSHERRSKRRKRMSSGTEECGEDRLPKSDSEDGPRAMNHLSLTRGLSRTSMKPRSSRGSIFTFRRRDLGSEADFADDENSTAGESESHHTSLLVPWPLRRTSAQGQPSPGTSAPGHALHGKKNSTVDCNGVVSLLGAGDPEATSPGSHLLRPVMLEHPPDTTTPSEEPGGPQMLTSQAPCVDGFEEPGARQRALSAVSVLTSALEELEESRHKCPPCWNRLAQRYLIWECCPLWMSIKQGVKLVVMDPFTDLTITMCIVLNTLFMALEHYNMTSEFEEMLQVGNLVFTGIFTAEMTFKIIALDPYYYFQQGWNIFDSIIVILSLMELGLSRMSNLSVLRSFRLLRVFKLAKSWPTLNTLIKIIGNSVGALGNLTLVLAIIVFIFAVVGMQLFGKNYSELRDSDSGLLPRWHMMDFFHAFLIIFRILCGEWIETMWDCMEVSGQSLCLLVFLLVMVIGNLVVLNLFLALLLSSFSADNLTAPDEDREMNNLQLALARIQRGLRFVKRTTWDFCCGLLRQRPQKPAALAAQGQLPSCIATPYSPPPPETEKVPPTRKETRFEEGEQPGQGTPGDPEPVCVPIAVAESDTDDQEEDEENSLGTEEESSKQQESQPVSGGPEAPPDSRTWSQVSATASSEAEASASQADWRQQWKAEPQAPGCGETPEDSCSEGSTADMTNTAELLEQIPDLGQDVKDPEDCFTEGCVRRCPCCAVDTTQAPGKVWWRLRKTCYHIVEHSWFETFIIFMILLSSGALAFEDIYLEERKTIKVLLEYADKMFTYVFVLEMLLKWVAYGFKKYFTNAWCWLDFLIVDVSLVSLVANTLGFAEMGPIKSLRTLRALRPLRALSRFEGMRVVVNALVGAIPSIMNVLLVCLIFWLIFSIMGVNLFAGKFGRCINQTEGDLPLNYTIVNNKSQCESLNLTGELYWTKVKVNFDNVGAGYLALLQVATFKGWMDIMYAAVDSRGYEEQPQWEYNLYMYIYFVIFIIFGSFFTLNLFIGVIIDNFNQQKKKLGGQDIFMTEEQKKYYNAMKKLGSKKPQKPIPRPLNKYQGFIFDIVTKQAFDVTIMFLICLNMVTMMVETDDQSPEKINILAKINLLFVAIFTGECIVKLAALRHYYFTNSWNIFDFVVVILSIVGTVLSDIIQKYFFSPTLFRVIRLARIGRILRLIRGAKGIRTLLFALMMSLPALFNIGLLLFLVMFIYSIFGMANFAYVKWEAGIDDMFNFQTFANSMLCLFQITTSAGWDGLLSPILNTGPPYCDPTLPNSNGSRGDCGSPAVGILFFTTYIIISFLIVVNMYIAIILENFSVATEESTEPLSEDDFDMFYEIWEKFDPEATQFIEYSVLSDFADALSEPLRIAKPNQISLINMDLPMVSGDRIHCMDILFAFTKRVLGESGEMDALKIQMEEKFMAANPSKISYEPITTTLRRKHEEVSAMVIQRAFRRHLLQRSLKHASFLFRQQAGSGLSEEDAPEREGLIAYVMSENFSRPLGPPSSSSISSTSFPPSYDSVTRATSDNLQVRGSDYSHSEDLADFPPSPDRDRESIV
Procedure: Solutions for recording Nav1.5 currents were:
Electrophysiological recordings were made from a human embryonic kidney (HEK) cell line stably expressing the full length hNav1.5. Population patch clamp measurements were made in the perforated patch clamp configuration (100 μg ml^−1 amphotericin) at room temperature (approx. 22° C.) using an IonWorks Quattro from Molecular Devices. […] Currents were first measured under control (pre-compound addition) conditions. […] Currents were measured from the depolarising step at the 15th pulse and referenced to the holding current.

MDR1 (P-glycoprotein) = MDR1 (P-glycoprotein) (Homo sapiens (Human), UniProt P08183); assay: in vitro; conditions: dog, MDCK-MDR1, pH 7.4
Procedure: Test compounds were added (10 μM, 0.1% DMSO final, n=2) to donor compartments of the Transwell plate assembly in assay buffer (Hanks balanced salt solution supplemented with 25 mM HEPES, adjusted to pH 7.4) for both apical to basolateral (A>B) and basolateral to apical (B>A) measurements. A parallel series of incubations were performed in the presence of the transporter inhibitor elacridar (5 μM) which was added to both compartments in the transwell plate. Incubations were performed at 37° C., with samples removed from both donor and acceptor chambers at T=0 and 1 hour for recovery assessment and compound analysed by mass spectrometry (LC-MS/MS), including an analytical internal standard.
Apparent permeability (Papp) values were determined from the relationship:
Where V is the volume of each Transwell compartment (apical 125 μL, basolateral 600 μL), and concentrations are the relative MS responses for compound (normalized to internal standard) in the donor chamber before incubation and acceptor chamber at the end of the incubation.
Area=area of cells exposed for drug transfer (0.33 cm2).
Efflux ratios (Papp B>A/Papp A>B) were calculated for each compound from the mean Papp values in each direction. […] The efflux ratios were also calculated in the same way from the runs carried out in the presence of the inhibitor. The net flux is the ratio of the efflux in the absence of inhibitor to that in the presence of inhibitor.
Lucifer Yellow (LY) was added to the apical buffer in all wells to assess viability of the cell layer.
Compound recovery from the wells was determined from MS responses (normalized to internal standard) in donor and acceptor chambers at the end of incubation compared to response in the donor chamber pre-incubation.

Sequence of HCN2 (Q9UL51 whole entry): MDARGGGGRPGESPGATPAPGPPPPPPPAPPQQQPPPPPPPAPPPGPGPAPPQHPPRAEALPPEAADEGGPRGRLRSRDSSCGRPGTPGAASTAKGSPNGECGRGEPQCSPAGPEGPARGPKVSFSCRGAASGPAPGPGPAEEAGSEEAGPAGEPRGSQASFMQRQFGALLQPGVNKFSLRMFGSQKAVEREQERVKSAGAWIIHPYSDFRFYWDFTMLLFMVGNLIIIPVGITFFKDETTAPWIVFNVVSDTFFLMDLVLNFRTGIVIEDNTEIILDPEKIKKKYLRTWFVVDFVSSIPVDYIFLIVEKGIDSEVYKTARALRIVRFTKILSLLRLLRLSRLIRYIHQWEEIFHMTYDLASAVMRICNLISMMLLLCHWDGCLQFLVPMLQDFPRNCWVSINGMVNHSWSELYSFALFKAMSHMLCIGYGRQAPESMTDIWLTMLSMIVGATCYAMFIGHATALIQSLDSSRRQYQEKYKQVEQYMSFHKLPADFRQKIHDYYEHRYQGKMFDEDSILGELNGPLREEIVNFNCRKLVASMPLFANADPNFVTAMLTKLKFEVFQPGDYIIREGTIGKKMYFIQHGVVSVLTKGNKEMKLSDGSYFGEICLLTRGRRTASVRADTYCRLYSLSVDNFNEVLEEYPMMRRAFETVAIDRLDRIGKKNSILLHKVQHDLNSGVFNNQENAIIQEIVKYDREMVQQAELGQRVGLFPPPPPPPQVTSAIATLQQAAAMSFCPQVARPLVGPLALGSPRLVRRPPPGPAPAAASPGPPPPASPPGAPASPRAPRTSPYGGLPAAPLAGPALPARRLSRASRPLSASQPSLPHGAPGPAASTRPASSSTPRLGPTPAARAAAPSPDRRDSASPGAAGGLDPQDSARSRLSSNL

SMILES | IC50 (HCN2) [µM] | IC50 (HCN4) [µM] | IC50 (hERG channel) [µM] | IC50 (hNav1.5) [µM] | efflux ratio at 1 h, 10 μM (MDR1 (P-glycoprotein))
N[C@@H](Cc1cccc(Br)n1)c1ccccc1-c1noc2ccccc12 [Example 44, (S)-1-[2-(benzo[d]isoxazol-3-yl)phenyl]-2-(6-bromopyridine-2-yl)ethan-1-amine] | 1.2 | 7.2 | 12.8 | 3.7 | 
COCCNc1cccc(C[C@H](N)c2ccccc2-c2noc3ccccc23)n1 [Example 52, (S)-6-{2-Amino-2-[2-(benzo[d]isoxazol-3-yl)phenyl]ethyl}-N-(2-methoxyethyl)pyridin-2-amine hydrochloride] | 1.6 | 6 | 1.2 | 1.6 | 
CN(C)C(=O)c1cccc(C[C@H](N)c2ccccc2-c2noc3ccccc23)n1 [Example 89, (S)-6-{2-Amino-2-[2-(Benzo[d]isoxazol-3-yl)phenyl]ethyl-N,N-dimethylpyridine-2-carboxamide hydrochloride] | 3.1 | > 30 | 19.1 | 5.8 | 24.6
Cc1ccc2c(-c3ccccc3[C@@H](N)Cc3ccccn3)noc2c1 [Example 33, (S)-1-[2-(6-Methylbenzo[d]isoxazol-3-yl)phenyl]-2-(pyridine-2-yl)ethan-1-amine] | 1.7 | > 30 | 4.4 | 8.8 | 
N[C@@H](Cc1cccc(N2CCCC2)n1)c1ccccc1-c1noc2ccccc12 [Example 119, (S)-1-[2-(Benzo[d]isoxazol-3-yl)phenyl]-2-[6-(pyrrolidin-1-yl)pyridine-2-yl]ethan-1-amine hydrochloride] | 0.8 | 2.1 | 1.3 | 3.3 | 
N[C@@H](Cc1cc(Br)ccn1)c1ccccc1-c1noc2ccccc12 [Example 117, (S)-1-[2-(Benzo[d]isoxazol-3-yl)phenyl]-2-(4-bromopyridine-2-yl)ethan-1-amine hydrochloride)] | 1.4 | 12.2 | 2.2 | 2.7 | 
CC[C@@H](c1ccccn1)[C@H](N)c1ccccc1-c1noc2ccccc12 [Example 46, (1S,2R)-1-[2-(benzo[d]isoxazol-3-yl)phenyl]-2-(pyridin-2-yl)butan-1-amine hydrochloride] | 3 | > 30 | 8.2 | 1.3 | 
N#Cc1ccc(C[C@H](N)c2ccccc2-c2noc3ccccc23)nc1 [Example 93, (S)-1-[2-(Benzo[d]isoxazol-3-yl)phenyl]-2-(5-cyanopyridine-2-yl)ethan-1-amine hydrochloride] | 1.8 | > 30 | 7.5 | 2.2 | 
N[C@@H](Cc1ccccn1)c1ccccc1-c1noc2cc(CCO)ccc12 [Example 40, (S)-1-[2-(6-[2-Hydroxyethyl]benzo[d]isoxazol-3-yl)phenyl]-2-(pyridine-2-yl)ethan-1-amine] | 15.6 |  | 7.8 | > 33 | 
Cc1cccc(C[C@H](N)c2ccccc2-c2nn(C)c3ccccc23)n1 [Example 61, (S)-1-[2-(1-Methyl-1H-indazole-3-yl)phenyl]-2-(6-methylpyridine-2-yl)ethan-1-amine hydrochloride] | 3.5 | > 30 | 0.46 | 6.7 | 
CC(C)C(c1ccccn1)[C@H](N)c1ccccc1-c1noc2ccccc12 (stereo partly drawn) [Example 48, (S)-1-[2-(Benzo[d]isoxazol-3-yl)phenyl]-3-methyl-2-(pyridine-2-yl)butan-1-amine hydrochloride] | 5.4 | > 30 | 16 | 5.3 | 
COC(=O)Nc1cccc(C[C@H](N)c2ccccc2-c2noc3ccccc23)n1 [Example 124, Methyl (S)-(6-{2-Amino-2-[2-(benzo[d]isoxazol-3-yl)phenyl]ethyl}pyridine-2-yl)carbamate hydrochloride] | 2.1 | > 30 | 2.3 | 1.3 | 
CC(C)n1nc(-c2ccccc2[C@@H](N)Cc2cccc(C#N)n2)c2ccccc21 [Example 67, (S)-2-(6-Cyanopyridine-2-yl)-1-[2-(1-isopropyl-1H-indazole-3-yl)phenyl]ethan-1-amine] | 1.3 | 19.5 | 3.7 | 9.5 | 
N[C@@H](Cc1cccc(-c2ncco2)n1)c1ccccc1-c1noc2ccccc12 [Example 118, (S)-1-[2-(Benzo[d]isoxazol-3-yl)phenyl]-2-[6-(oxazol-2-yl)pyridine-2-yl]ethan-1-amine hydrochloride] | 1.7 | 5.2 | 3.1 | 7.8 | 
Cn1cc(-c2cccc(C[C@H](N)c3ccccc3-c3noc4ccccc34)n2)cn1 [Example 90, (S)-1-[2-(Benzo[d]isoxazol-3-yl)phenyl]-2-[6-(1-methyl-1H-pyrazol-4-yl)pyridine-2-yl]ethan-1-amine hydrochloride] | 2.9 | 7.1 | 4.1 | 10.6 | 
CCc1cccc(C[C@H](N)c2ccccc2-c2noc3ccccc23)n1 [Example 101, (S)-1-[2-(Benzo[d]isoxazol-3-yl)phenyl]-2-(6-ethylpyridine-2-yl)ethan-1-amine hydrochloride] | 0.7 | 13.1 | 2.8 | 1.6 | 
N[C@@H](Cc1nc(-c2cn[nH]c2)ccc1F)c1ccccc1-c1noc2ccccc12 [Example 78, (S)-1-[2-(Benzo[d]isoxazol-3-yl)phenyl]-2-[3-fluoro-6-(1H-pyrazol-4-yl)pyridin-2-yl)ethan-1-amine hydrochloride] |  | 8.3 | 7.6 | 6.4 | 
Cc1ccc(C[C@H](N)c2ccccc2-c2noc3ccccc23)nc1 [Example 92, (S)-1-[2-(Benzo[d]isoxazol-3-yl)phenyl]-2-(5-methylpyridine-2-yl)ethan-1-amine hydrochloride] | 1.9 | > 30 | 6.4 | 1.4 | 
N[C@@H](Cc1cccc(C(F)(F)F)n1)c1ccccc1-c1noc2ccccc12 [Example 62, (S)-1-[2-(Benzo[d]isoxazol-3-yl)phenyl]-2-(6-trifluoromethylpyridin-2-yl)ethan-1-amine hydrochloride] | 0.7 | 19.2 | 3.2 | 3.8 | 
CN(C)C(=O)CCc1cccc(C[C@H](N)c2ccccc2-c2noc3ccccc23)n1 [Example 109, (S)-3-(6-{2-Amino-2-[2-(benzo[d]isoxazol-3-yl)phenyl]ethyl}pyridine-2-yl)-N,N-dimethylpropanamide hydrochloride] | 2.4 | > 30 | 4.3 | 3.2 | 
Cc1cccc(C[C@H](N)c2c(F)cccc2-c2noc3ccccc23)n1 [Example 112, (S)-1-[2-(Benzo[d]isoxazol-3-yl)-6-fluorophenyl]-2-(6-methylpyridin-2-yl)ethan-1-amine hydrochloride] | 2 | 4.2 | 10.2 | 24.2 | 
Nc1cccc(C[C@H](N)c2ccccc2-c2noc3ccccc23)n1 [Example 121, (S)-6-{2-Amino-2-[2-(benzo[d]isoxazol-3-yl)phenyl]ethyl}pyridine-2-amine hydrochloride] | 1.3 | > 30 | 8.6 | 1.6 | 
Cc1cccnc1C[C@H](N)c1ccccc1-c1noc2ccccc12 [Example 47, (S)-1-[2-(Benzo[d]isoxazol-3-yl)phenyl]-2-(3-methylpyridine-2-yl)ethan-1-amine hydrochloride] | 0.6 | > 30 | 2.8 | 5.8 | 
N[C@@H](Cc1nc(CCO)ccc1F)c1ccccc1-c1noc2ccccc12 [Example 77, (S)-2-(6-{2-Amino-2-(2-benzo[d]isoxazol-3-yl)phenyl]ethyl}-5-fluoropyridin-2-yl)ethan-1-ol hydrochloride] | 0.9 | 10.4 | > 33 | 6.5 | 
N#Cc1cccnc1C[C@H](N)c1ccccc1-c1noc2ccccc12 [Example 75, (S)-1-[2-(Benzo[d]isoxazol-3-yl)phenyl]-2-(3-cyanopyridin-2-yl)ethan-1-amine] | 1.2 | 6.6 | 1.5 | 6.6 | 
CC(C)(c1ccccn1)[C@H](N)c1ccccc1-c1noc2ccccc12 [Example 49, (R)-1-[2-(Benzo[d]isoxazol-3-yl)phenyl]-2-methyl-2-(pyridine-2-yl)propane-1-amine hydrochloride] | 6.5 | 22.6 | 5.2 | 3.8 | 
